The compounds below were run against human kinase Mps-1 (N-terminally GST-tagged human full length recombinant Mps-1 kinase) (Homo sapiens (Human), UniProt P33981) (assay: Mps-1 Kinase Assay (TR-FRET)). Conditions: 10 μM ATP, 1 μM biotinylated peptide substrate, 60 min at 22° C., read-out: Mps1 IC50.
Format: biochemical
Protocol: The human kinase Mps-1 phosphorylates a biotinylated substrate peptide. Detection of the phosphorylated product is achieved by time-resolved fluorescence resonance energy transfer (TR-FRET) from Europium-labelled anti-phospho-Serine/Threonine antibody as donor to streptavidin labelled with cross-linked allophycocyanin (SA-XLent) as acceptor. Compounds are tested for their inhibition of the kinase activity.
N-terminally GST-tagged human full length recombinant Mps-1 kinase (purchased from Invitrogen, Karslruhe, Germany, cat. no PV4071) was used. As substrate for the kinase reaction a biotinylated peptide of the amino-acid sequence […] (C-terminus in amide form, purchased from Biosynthan GmbH, Berlin) was used.
The concentration of Mps-1 in the assay was adjusted to the activity of the enzyme lot and was chosen appropriate to have the assay in the linear range, typical enzyme concentrations were in the range of about 1 nM (final conc. in the 5 μl assay volume).
The resulting mixture was incubated 1 h at 22° C. to allow the binding of the phosphorylated peptide to the anti-phospho(Ser/Thr)-Europium-antibody. Subsequently the amount of phosphorylated substrate was evaluated by measurement of the resonance energy transfer from the Europium-labelled anti-phospho(Ser/Thr) antibody to the Streptavidin-XLent.

Sequence of human kinase Mps-1 (N-terminally GST-tagged human full length recombinant Mps-1 kinase) (P33981 whole entry): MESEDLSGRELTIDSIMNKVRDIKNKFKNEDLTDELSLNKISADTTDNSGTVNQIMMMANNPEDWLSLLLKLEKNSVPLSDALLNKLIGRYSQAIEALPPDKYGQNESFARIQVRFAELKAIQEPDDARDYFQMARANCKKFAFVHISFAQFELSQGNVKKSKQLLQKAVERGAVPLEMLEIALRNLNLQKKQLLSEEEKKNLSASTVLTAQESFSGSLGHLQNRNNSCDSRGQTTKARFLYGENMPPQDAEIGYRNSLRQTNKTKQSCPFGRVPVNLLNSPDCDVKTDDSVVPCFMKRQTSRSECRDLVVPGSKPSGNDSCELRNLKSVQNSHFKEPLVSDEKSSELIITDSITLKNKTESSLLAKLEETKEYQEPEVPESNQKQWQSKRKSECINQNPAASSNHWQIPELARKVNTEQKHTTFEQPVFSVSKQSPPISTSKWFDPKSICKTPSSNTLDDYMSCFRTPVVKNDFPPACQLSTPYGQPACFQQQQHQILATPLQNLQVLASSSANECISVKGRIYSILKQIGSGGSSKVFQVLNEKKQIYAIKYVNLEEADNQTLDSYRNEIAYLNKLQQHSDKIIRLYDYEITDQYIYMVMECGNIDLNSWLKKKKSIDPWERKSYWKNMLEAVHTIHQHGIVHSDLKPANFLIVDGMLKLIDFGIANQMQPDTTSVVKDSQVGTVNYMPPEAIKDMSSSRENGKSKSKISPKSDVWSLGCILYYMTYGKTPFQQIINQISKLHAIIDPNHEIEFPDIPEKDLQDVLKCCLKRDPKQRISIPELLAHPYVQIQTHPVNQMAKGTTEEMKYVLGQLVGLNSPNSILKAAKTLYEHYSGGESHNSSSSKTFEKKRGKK

IC50	Compound
8.3 nM	CC(C)(C)OC(=O)NCCCNc1nc(-c2ccncc2)cn2c(-c3ccc(C(=O)NC4CC4)cc3)cnc12 [Example 2-1, tert-butyl [3-({3-[4-(cyclopropylcarbamoyl)phenyl]-6-(pyridin-4-yl)imidazo[1,2-a]pyrazin-8-yl}amino)propyl]carbamate]
94.6 nM	CC(C)(C)OC(=O)NCC#CCCNc1nc(-c2ccccc2)cn2c(-c3ccc(C(=O)NC4CC4)cc3)cnc12 [Example 2-2, tert-Butyl [5-({3-[4-(cyclopropylcarbamoyl)phenyl]-6-phenylimidazo[1,2-a]pyrazin-8-yl}amino)pent-2-yn-1-yl]carbamate]
64 nM	CC(C)(C)OC(=O)NC/C=C/CCNc1nc(-c2ccccc2)cn2c(-c3ccc(C(=O)NC4CC4)cc3)cnc12 [Example 2-3, tert-Butyl [(2E)-5-({3-[4-(cyclopropylcarbamoyl)phenyl]-6-phenylimidazo[1,2-a]pyrazin-8-yl}amino)pent-2-en-1-yl]carbamate]
12.3 nM	CC(C)(C)OC(=O)NC/C=C\CCNc1nc(-c2ccccc2)cn2c(-c3ccc(C(=O)NC4CC4)cc3)cnc12 [Example 2-4, tert-Butyl [(2Z)-5-({3-[4-(cyclopropylcarbamoyl)phenyl]-6-phenylimidazo[1,2-a]pyrazin-8-yl}amino)pent-2-en-1-yl]carbamate]
12.6 nM	CC(C)CNc1nc(C2CCCCC2)cn2c(-c3ccc(C(=O)NC4CC4)cc3)cnc12 [Example 4-1, 4-{6-cyclohexyl-8-[(2-methylpropyl)amino]imidazo[1,2-a]pyrazin-3-yl}-N-cyclopropylbenzamide]
6.1 nM	CC(C)CNc1nc(C2CCCC2)cn2c(-c3ccc(C(=O)NC4CC4)cc3)cnc12 [Example 4-2, 4-{6-cyclopentyl-8-[(2-methylpropyl)amino]imidazo[1,2-a]pyrazin-3-yl}-N-cyclopropylbenzamide]
1.9 nM	CC(C)CNc1nc(/C=C2\CCC(=O)N2C)cn2c(-c3ccc(C(=O)NC4CC4)cc3)cnc12 [Example 5-1, N-cyclopropyl-4-{6-[(E)-(1-methyl-5-oxopyrrolidin-2-ylidene)methyl]-8-[(2-methylpropyl)amino]imidazo[1,2-a]pyrazin-3-yl}benzamide]
10.4 nM	CC(C)CNc1nc(NC(=O)c2ccccn2)cn2c(-c3ccc(C(=O)NC4CC4)cc3)cnc12 [Example 6-1, N-{3-[4-(cyclopropylcarbamoyl)phenyl]-8-[(2-methylpropyl)amino]imidazo[1,2-a]pyrazin-6-yl}pyridine-2-carboxamide]

More lines, now with the values behind:

Compound	IC50
C/C=C/c1cn2c(-c3ccc(C(=O)NC4CC4)cc3)cnc2c(NCC(C)C)n1 [Example 1-1, N-cyclopropyl-4-{8-[(2-methylpropyl)amino]-6-[(1E)-prop-1-en-1-yl]imidazo[1,2-a]pyrazin-3-yl}benzamide]	6.2 nM
COCc1cccc(-c2cn3c(-c4ccc(C(=O)NC5CC5)cc4)cnc3c(NCC(C)C)n2)c1 [Example 1-2, N-cyclopropyl-4-{6-[3-(methoxymethyl)phenyl]-8-[(2-methylpropyl)amino]imidazo[1,2-a]pyrazin-3-yl}benzamide]	7.1 nM
CC(C)CNc1nc(C2=CCCCC2)cn2c(-c3ccc(C(=O)NC4CC4)cc3)cnc12 [Example 1-3, 4-{6-(cyclohex-1-en-1-yl)-8-[(2-methylpropyl)amino]imidazo[1,2-a]pyrazin-3-yl}-N-cyclopropylbenzamide]	4.2 nM
C/C=C(/C)c1cn2c(-c3ccc(C(=O)NC4CC4)cc3)cnc2c(NCC(C)C)n1 [Example 1-4, 4-{6-[(2Z)-but-2-en-2-yl]-8-[(2-methylpropyl)amino]imidazo[1,2-a]pyrazin-3-yl}-N-cyclopropylbenzamide]	1.9 nM
CC(C)CNc1nc(C2CC2)cn2c(-c3ccc(C(=O)NC4CC4)cc3)cnc12 [Example 1-5, N-cyclopropyl-4-{6-cyclopropyl-8-[(2-methylpropyl)amino]imidazo[1,2-a]pyrazin-3-yl}benzamide]	6.2 nM
CC(C)CNc1nc(C2CC=CCC2)cn2c(-c3ccc(C(=O)NC4CC4)cc3)cnc12 (centres unmarked) [Example 1-6, 4-{6-(cyclohex-3-en-1-yl)-8-[(2-methylpropyl)amino]imidazo[1,2-a]pyrazin-3-yl}-N-cyclopropylbenzamide]	2.8 nM
C/C=C(\C)c1cn2c(-c3ccc(C(=O)NC4CC4)cc3)cnc2c(NCC(C)C)n1 [Example 1-7, 4-{6-[(2E)-but-2-en-2-yl]-8-[(2-methylpropyl)amino]imidazo[1,2-a]pyrazin-3-yl}-N-cyclopropylbenzamide]	4.1 nM
C=C(C)c1cn2c(-c3ccc(C(=O)NC4CC4)cc3)cnc2c(NCC(C)C)n1 [Example 1-9, N-cyclopropyl-4-{8-[(2-methylpropyl)amino]-6-(prop-1-en-2-yl)imidazo[1,2-a]pyrazin-3-yl}benzamide]	5.8 nM
C/C=C/c1cn2c(-c3ccc(C(=O)NC4CC4)c(Cl)c3)cnc2c(NCC(C)C)n1 [Example 1-10, 2-chloro-N-cyclopropyl-4-{8-[(2-methylpropyl)amino]-6-[(1E)-prop-1-en-1-yl]imidazo[1,2-a]pyrazin-3-yl}benzamide]	72.3 nM
C/C=C/c1cn2c(-c3ccc(C(=O)NC4CC4)c(Cl)c3)cnc2c(NCCC(F)(F)F)n1 [Example 1-11, 2-chloro-N-cyclopropyl-4-{6-[(1E)-prop-1-en-1-yl]-8-[(3,3,3-trifluoropropyl)amino]imidazo[1,2-a]pyrazin-3-yl}benzamide]	34.3 nM
C/C=C/c1cn2c(-c3ccc(C(=O)NC4CC4)c(Cl)c3)cnc2c(NCC(C)(C)O)n1 [Example 1-12, 2-chloro-N-cyclopropyl-4-{8-[(2-hydroxy-2-methylpropyl)amino]-6-[(1E)-prop-1-en-1-yl]imidazo[1,2-a]pyrazin-3-yl}benzamide]	132 nM
C/C=C/c1cn2c(-c3ccc(C(=O)NC4CC4)c(Cl)c3)cnc2c(NCc2ccnn2C)n1 [Example 1-13, 2-chloro-N-cyclopropyl-4-(8-{[(1-methyl-1H-pyrazol-5-yl)methyl]amino}-6-[(1E)-prop-1-en-1-yl]imidazo[1,2-a]pyrazin-3-yl)benzamide]	70.6 nM
C/C=C/c1cn2c(-c3ccc(C(=O)NC4CC4)c(F)c3)cnc2c(NCC(C)C)n1 [Example 1-14, N-cyclopropyl-2-fluoro-4-{8-[(2-methylpropyl)amino]-6-[(1E)-prop-1-en-1-yl]imidazo[1,2-a]pyrazin-3-yl}benzamide]	38.7 nM
C/C=C/c1cn2c(-c3ccc(C(=O)NC4CC4)c(F)c3)cnc2c(NCCC(F)(F)F)n1 [Example 1-15, N-cyclopropyl-2-fluoro-4-{6-[(1E)-prop-1-en-1-yl]-8-[(3,3,3-trifluoropropyl)amino]imidazo[1,2-a]pyrazin-3-yl}benzamide]	15.4 nM
C/C=C/c1cn2c(-c3ccc(C(=O)NC4CC4)c(F)c3)cnc2c(NCC(C)(C)O)n1 [Example 1-16, N-cyclopropyl-2-fluoro-4-{8-[(2-hydroxy-2-methylpropyl)amino]-6-[(1E)-prop-1-en-1-yl]imidazo[1,2-a]pyrazin-3-yl}benzamide]	46.5 nM
C/C=C/c1cn2c(-c3ccc(C(=O)NC4CC4)c(F)c3)cnc2c(NCC2CCCO2)n1 (centres unmarked) [Example 1-17, N-cyclopropyl-2-fluoro-4-{6-[(1E)-prop-1-en-1-yl]-8-[(tetrahydrofuran-2-ylmethyl)amino]imidazo[1,2-a]pyrazin-3-yl}benzamide]	99.2 nM
C/C=C/c1cn2c(-c3ccc(C(=O)NC4CC4)c(F)c3)cnc2c(NCc2ccnn2C)n1 [Example 1-18, N-cyclopropyl-2-fluoro-4-(8-{[(1-methyl-1H-pyrazol-5-yl)methyl]amino}-6-[(1E)-prop-1-en-1-yl]imidazo[1,2-a]pyrazin-3-yl)benzamide]	31.9 nM
C=Cc1ccc(-c2cn3c(-c4ccc(C(=O)NC5CC5)cc4)cnc3c(NCC(C)C)n2)cc1 [Example 1-20, N-cyclopropyl-4-{6-(4-ethenylphenyl)-8-[(2-methylpropyl)amino]imidazo[1,2-a]pyrazin-3-yl}benzamide]	21.4 nM

Source: patent US9284317B2, “Substituted imidazo[1,2-a]pyrazines as MPS-1 inhibitors” (Bayer Intellectual Property GmbH, priority 2010, dated 2016)
